Test results from patent US6506730B1, “Nasal transmucosal delivery of peptide conjugated with biocompatible polymers” (priority 1999, dated 2003).
Where no end group is shown, it is not given here.

Key:
[1] = oral administration; cited from earlier work
[2] = pH 5.5 to 6.0; cited from earlier work
[3] = tested on: calcium concentration in plasma; assay: Comparison of calcium reduction effect of sCT and PEG-sCT after nasal administration to rats; format: in vivo, SD (Sprague Dawley) male rat; settings: rat; for plasma calcium as % of pre-dose value: n = 4, plasma calcium as ratio to primary value
Method: SD (Sprague Dawley) male rat (220-300 g, Charles River Japan, Atsugi, Japan) was put under anesthesia by administrating 45 mg/kg of peptobarbital into interperitoneal. Bronchus and esophagus were cannulated with PE-250 tube and thigh arteria with SP-45 tube. 20 ul of a placebo and experimental drugs were administered into the nasal cavity of rats with a Hamilton syringe. The placebo used physiological saline and the experimental drug used PEG5000-sCT, PEG12000-sCT, PEG2000-sCT and sCT prepared from the Example 2. Salmon calcitonin was administered at dose of 0.05 to 4.5 IU per rat, and rats were grouped into 4. 200 ul of blood was taken at before, 5, 10, 30, 60, 120, 240, 480 and […] after the placebo and the experimental drugs were administered, and immediately centrifuged to obtain 100 ul of plasma. The calcium concentration in plasma was measured using a calcium assay kit (Sigma, USA), and calcium remaining efficiency was calculated as the calcium concentration before administration was 100. The unit of the measured calcium concentration in plasma was mg/dl, and the remaining efficiency was calculated as the ratio (%) to the primary value.
After the remaining coefficient was calculated according to each time, area-under the curve (AUC) was calculated about the average value of remaining coefficient at each time per experimental group. The reduction ratio of calcium concentration was calculated by the mathematical formula 1, and the results were represented in the table 1 (FIG. 6).
? ΓD(%)=(AUCCa-plac−AUCCa-sCT)/AUCCa-plac ? ┐100
where, AUCCa-plac was AUC from placebo administration to 960 minutes, and AUCCa-sCT was AUC from calcitonin and experimental drugs administration to 960 minutes.

[4] = tested on: calcium concentration in plasma; assay: as above; format: in vivo, SD (Sprague Dawley) male rat; settings: Time 960 (minutes after nasal administration); rat, n = 4; plasma calcium as ratio to primary value
[5] = nasal transmucosal administration

Substance | absorption half life [1] [min] | bioavailability [1] [%] | elimination half life [1] [min] | stability in acetate buffer [2] | plasma calcium as % of pre-dose value ([3]; Time 0 (before administration = 100), nasal cavity) [%] | plasma calcium as % of pre-dose value ([3]; Time 5 (minutes after nasal administration)) [%] | plasma calcium as % of pre-dose value ([3]; Time 10 (minutes after nasal administration)) [%] | plasma calcium as % of pre-dose value ([3]; Time 30 (minutes after nasal administration)) [%] | plasma calcium as % of pre-dose value ([3]; Time 60 (minutes after nasal administration)) [%] | plasma calcium as % of pre-dose value ([3]; Time 120 (minutes after nasal administration)) [%] | plasma calcium as % of pre-dose value ([3]; Time 240 (minutes after nasal administration)) [%] | plasma calcium as % of pre-dose value ([3]; Time 480 (minutes after nasal administration)) [%] | time after which calcium concentration restored at the original concentration [3, 5] [h] | time for which the calcium concentration was decreased / reduction effect represented after the nasal transmucosal administration [3, 5] [h] | plasma calcium as % of pre-dose value [4] [%]
His-Asp-Tyr-Ala-Tyr-Asp-Lys-NH2 (HDYAYDK-NH2) [GHRP-6] | 15 | 0.3 | 60 | very stable | – | – | – | – | – | – | – | – | – | – | –
salmon calcitonin [sCT] | – | – | – | – | 100 | 98.9 | 93.7 | 95 | 98.7 | 97.8 | 100.3 | 101.6 | 2 | 1 | 101
